melting point [°C]	Structure (SMILES)
305	Brc1ccc(C#Cc2c3ccccc3c(C#Cc3ccc(Br)cc3)c3ccccc23)cc1
190 to 191	O=C1CC2CCS(=O)c3ccccc3C2=NN1c1ccc(Cl)cc1 (stereo not drawn)
80 to 83	O=C(COc1ccccc1)c1ccc(Cl)cc1
195	Nc1cc(OCc2ccccc2)nc(N)n1
142 to 143	CCc1cccc(CNC[C@@H](O)[C@H](Cc2cc(F)cc(F)c2)NC(=O)c2ccc3ccncc3c2)c1
178 to 180	O=S(=O)(c1cccc2ccccc12)c1n[nH]c2ccc(OC3CCCNC3)cc12 (stereo not drawn)
132 to 133	COCCNC(=O)c1cccc(-c2cccc3c(C)c(Cc4cc(F)cc(Cl)c4)sc23)c1
185 to 186	Nc1ncc(-c2cccc(Nc3ccc(-c4ccoc4)cc3[N+](=O)[O-])c2)cn1
108 to 110	CC[C@@H](c1ccccc1)N(Cc1ccc(C(=O)OC)cc1OC)S(=O)(=O)c1ccc(Cl)cc1
98	CC(C)(C)OC(=O)NC(COCc1ccccc1)c1nc2c(C(F)(F)F)cccc2c(=O)o1 (stereo not drawn)
179	Cn1ncnc1COc1nn2c(-c3c(F)cccc3F)nncc2c1-c1ccccc1
88 to 90	COC(=O)c1ccc(OCC(O)COc2ccc(Cl)cc2)cc1 (stereo not drawn)
234 to 236	CNC(=O)c1ccc(-c2ccc(NC(=O)NCc3cccnc3)cc2)nc1Nc1ccccc1
195	CN(C)Cc1cc(Nc2nncc3ccccc23)cc(CN(C)C)c1O
362 to 365	O=C(O)c1ccc(NC(=O)c2ccncc2)cc1
173 to 175	C(=Nc1ccc(Nc2ccccc2)cc1)Nc1ccc(Nc2ccccc2)cc1
95.8 to 98.6	CCCCCCCCCCOc1ccc(-c2ccc(OCc3ccccc3)c(F)c2)cc1F
282 to 284	CCc1ccc(C2C(C(=O)c3ccc(C(C)C)cc3)=C(O)C(=O)N2c2ccc(C)nn2)cc1 (stereo not drawn)

melting point [°C]	Structure (SMILES)
207 to 210	COC1CCc2c(cc(-c3ccccc3)n2-c2ccc(O)c(C(=O)O)c2)C1 (stereo not drawn)
160	O=C(O)CCc1nc(-c2ccccc2)cc2ccccc12
138 to 140	NC(CCCCNC(=O)OCc1ccccc1)C(=O)Nc1cccc2ccccc12 (stereo not drawn)
146 to 147	CCCn1c(=O)cc(Cl)n(Cc2ccc(-c3ccccc3C#N)cc2)c1=O
226	CCCC1=C([N+](=O)[O-])C(c2cccc3ccccc23)c2c[nH]nc2N1 (stereo not drawn)
160	COc1ccc(C(C)(c2ccc(OC)cc2)c2ccc(OC)cc2)cc1
108 to 109	CCSc1nc(-c2ccc(OC)cc2)c(-c2ccc(OC)cc2)[nH]1
201	O=C(O)C1(S(=O)(=O)c2ccc(Oc3ccc(Cl)cc3)cc2)CCN(Cc2ccccc2)CC1
98.5	CSc1cc(-c2ccc(C(F)(F)F)cc2)nc(-c2cccc(C(F)(F)F)c2)c1
197 to 199	OCc1ccc(-c2ccc3nc(-c4ccc(Cl)cc4)cn3c2)o1
72 to 74	Fc1ccc2[nH]cc(C3=CCC(N4CCC(Cc5ccccc5)CC4)CC3)c2c1 (stereo not drawn)
163	Cc1nc2c3c(ccc2[nH]1)[C@@H](O)[C@H](O)[C@@H](c1ccccc1)O3
98 to 100	COC(=O)COCc1cc2cc(Cl)ccc2n1S(=O)(=O)c1ccccc1
122 to 123	CCc1cnc(CSc2cnc(NC(=O)c3ccccc3)s2)o1
194 to 195	O=C(N[C@H](Cc1ccc(C(F)(F)F)cc1)[C@@H](O)c1ccc(F)cc1F)c1ccc(F)c2ccccc12 (racemic)
71 to 78	CCOC(=NC(=O)c1ccc(OC)cc1)N1Cc2ccccc2-c2ccccc2C1
258 to 260	CCS(=O)(=O)Nc1cccc2c1N=C(c1ccc(-n3c(C)nc4cnccc43)cc1)CC(=O)N2
126 to 133	CC1(C)CCC(C)(C)c2cc(N(Cc3ccc(Cl)cc3)C(=O)Nc3ccc(C(=O)O)cc3)ccc21

Second part, the molecule before the results:

Structure (SMILES)	melting point [°C]
CCCCCCC(C)(C)c1ccc(C2=CC(O)CCC2)c(O)c1 (stereo not drawn)	87 to 88
CCOC(=O)c1sc(-c2ccc(C(F)(F)F)cc2)nc1COC(C)=O	82
CC(C)(C)C(=O)c1c[nH]c2ncc(-c3ccoc3)nc12	256 to 258
CCCCc1c(OC)cc(C(=O)O)nc1OC	113 to 114
C1=CCCCCN(CCc2nccc3c2[nH]c2ccccc23)CCCC1	77 to 82
Cc1cc(C#N)cn2cc(-c3cccc(Br)c3)nc12	168 to 170
Cc1cc(-c2nc3cc(Cl)cc(CCc4ccccn4)c3o2)[nH]n1	205 to 220
CCOc1ccc(-c2nc(CCC(=O)c3nccs3)cs2)cc1OCC	93.1 to 94.4
COc1cc2c(c(Cl)c1Cl)C(=O)C(C)(c1ccc(Br)cc1)C2 (stereo not drawn)	200 to 203
O=C(O)C1CN(Cc2ccc(OCc3ccc(Cl)c(Cl)c3)cc2)C1	166
O=C1c2ccccc2CCC1CN1CCC2(CC1)C(=O)NCN2c1ccccc1 (stereo not drawn)	170 to 173
CCOC(=O)C(C)c1ccc(-c2cn3cccnc3n2)cc1 (stereo not drawn)	171 to 173
O=C(CCC(=O)N1CCC[C@H]1C(=O)O)c1ccc(Cl)cc1	137 to 138
O=C1C(=O)c2ccccc2C2=C1SCC1(CCC(O)CC1)O2 (stereo not drawn)	166 to 168
CC(=NOCCC(=O)O)c1ccc(Cl)cc1	80 to 83
CCOc1ccc2nc3ccc(C(=O)O)cn3c(=O)c2c1	260 to 265
CCSc1nc(-c2ccco2)c2ncn(Cc3ccc(OC)cc3)c2n1	116 to 117
O=C(O)C(CCC(=O)N1CCOCC1)Cc1cccc2ccccc12 (stereo not drawn)	130 to 135
CCC(CC)c1ccc(Cl)c2nc3n(c12)CCN3c1ccc(Cl)cc1Br	169 to 171
CC(C)(C)c1cc(CCc2cc(C(C)(C)C)c(O)c(C(C)(C)C)c2)cc(C(C)(C)C)c1O	170 to 171
CC1=C(C(C)O)C(C)(C)CCC1=NO (stereo not drawn)	131 to 135

Structure (SMILES)	melting point [°C]
CCCCCCCCCCCCCCCc1cccc(OC)c1C1NC(=O)NC(C)=C1C(=O)OC (stereo not drawn)	101 to 102
COc1ccccc1CN=C1C2CCN(CC2)C1C(c1ccccc1)c1ccccc1 (stereo not drawn)	154 to 158
CCCCCCCCCCC1(CCCCCCCCCC)c2cc(Br)ccc2-c2ccc(Br)cc21	38.1 to 38.4
Cc1ccc(F)c(NS(=O)(=O)c2n[nH]c(NC=O)n2)c1F	270 to 273
CSCCCCCn1c(CCC(C)=O)nc2c(N)nc3ccccc3c21	179 to 181
Cc1noc(NS(=O)(=O)c2cccc3c(N(C)C)cccc23)c1Br	87 to 89
Cc1cc(C)c(CP(=O)(Cc2c(C)cc(C)cc2C)Cc2c(C)cc(C)cc2C)c(C)c1	232 to 233
C=C(C)C(=O)Nc1cccc(C(=O)NC2=NN(c3c(Cl)cc(Cl)cc3Cl)C(=O)C2c2cc[nH]n2)c1 (stereo not drawn)	227 to 230
O=c1ncnc2cc3[nH][nH]cc3cc12	330
CCCc1c(OCCCSc2nc3ccccc3[nH]2)ccc(C(C)=O)c1O	149 to 150
NC(=S)NN=C(CCCCl)c1ccccc1	128 to 130
NNC(=S)Cc1ccc(F)cc1	150 to 152
O=c1[nH]c(=O)n(C2OC(CO)C(O)C2O)cc1C(Cl)=CI (stereo not drawn)	109 to 111
COc1ccc(N2N=C3c4cc(Cl)ccc4SCCC3CC2=O)cc1 (stereo not drawn)	159 to 161
O=C1C2=C(CCCC2)C(=O)N1c1c(F)cc(Cl)c2c1CC(CO)O2 (stereo not drawn)	193 to 195
COC(=O)C1C=CCN2C(=O)C(CCSC(C)=O)(Cc3ccccc3)C(=O)N12 (stereo not drawn)	161 to 162
Nc1ccc(-c2cccc(C(F)(F)F)c2)nn1	138 to 139
CCOC(=O)c1cc(-c2ccc(Cl)cc2)cnc1C	71
N#Cc1cccnc1N1CCN(CC(=O)Nc2cc(C(F)(F)F)ccc2F)CC1	130 to 133
Cc1cnc2n1-c1sc(CCCO)cc1C(c1ccccc1Cl)=NC2	131 to 134
COC(=O)c1cc(CN=C=S)cc(CN=C=S)c1	67 to 69

Structure (SMILES)	melting point [°C]
CCN1C(=O)C(C)(C)C(=O)N(C)c2cc(CCN(CCn3cc(C)c4oc(C)cc4c3=O)Cc3cc(C)nn3C)ccc21	168 to 170
Cc1cc(C2=C(C=CC3CC(O)CC(=O)O3)C(C)(C)CC(O)C2)ccc1F (stereo not drawn)	77 to 79
CC#CC1(C)OC(=O)Nc2ccc(-c3cccc(Cl)c3)cc21 (stereo not drawn)	184 to 185
CSC(SC)=C(C(=O)c1ccc(C(F)(F)F)cc1S(C)(=O)=O)C(=O)C1CC1	137 to 139
COC(=O)CSc1cc(NC(=O)OC(C)(C)C)c([N+](=O)[O-])cc1I	110 to 112
Cc1ccc(C(=O)N(C)C)cc1-c1nc(NC2CCN(C)CC2)nc2c1CNC(=O)N2c1c(F)cccc1F	163 to 165
CCOC(=O)C1=C(C)N2CCNC2=C(C(=O)OCC)C1c1cccc(C(=O)OCC)c1 (stereo not drawn)	149
COc1cccc(NC(NC(C)C(C)(C)C)=C(C#N)S(=O)(=O)C(C)C)c1 (stereo not drawn)	59 to 62
Cc1cccc(CCc2c(C(C)C)nc(C(C)C)c(CO)c2-c2ccc(F)cc2)c1	148 to 150
COC(=O)c1nc(OC)nc(OC)c1Cl	98 to 100
FC(F)(F)c1ccc2c(c1)SSSSS2	44 to 50
Cc1nnsc1C(=O)Nc1ccc(-n2nc(C(F)(F)F)cc2C2CC2)nc1	170 to 172
Oc1ccnn1-c1c(Cl)cc(C(F)(F)F)cc1Cl	223 to 225
COc1cc(-c2nc(C)ncc2Br)c(F)cc1Cl	106 to 107
CCCN1C(=O)CC2CCC(C)C3CCC4(C)OOC23C1O4 (single isomer, unassigned; (-))	125 to 126
CCOC(=O)Cc1c(C(=O)OCC)c(C)cn1C	71 to 72
CSc1cc2c(cc1C(F)(F)F)N(C(=O)Nc1cccc(C(=O)CCCN(C)C)c1)CC2	178 to 180
CCCCCCCCCCCCCCCCCCOc1cc(OCCCOc2ccc(S(C)=O)cc2)cc(C(=O)O)c1 (stereo not drawn)	77 to 80
CS(=O)(=O)c1ncnn1CC(O)(Cc1ccccc1Cl)C1(Cl)CC1 (stereo not drawn)	125 to 128
CSC1=Nc2ccc(Cl)cc2Cn2nnnc21	131 to 133
